This is an account of results in patent US7799757B2, “Analogs of parathyroid hormone and PTH-related protein as bone anabolic agents” (priority 2002, dated 2010).

The target in experiment [1] is T1, recombinant hPTH1-receptor (Homo sapiens, UniProt Q03431).
T1 construct: expressed in transfected cells
T1 sequence (Q03431 27-593): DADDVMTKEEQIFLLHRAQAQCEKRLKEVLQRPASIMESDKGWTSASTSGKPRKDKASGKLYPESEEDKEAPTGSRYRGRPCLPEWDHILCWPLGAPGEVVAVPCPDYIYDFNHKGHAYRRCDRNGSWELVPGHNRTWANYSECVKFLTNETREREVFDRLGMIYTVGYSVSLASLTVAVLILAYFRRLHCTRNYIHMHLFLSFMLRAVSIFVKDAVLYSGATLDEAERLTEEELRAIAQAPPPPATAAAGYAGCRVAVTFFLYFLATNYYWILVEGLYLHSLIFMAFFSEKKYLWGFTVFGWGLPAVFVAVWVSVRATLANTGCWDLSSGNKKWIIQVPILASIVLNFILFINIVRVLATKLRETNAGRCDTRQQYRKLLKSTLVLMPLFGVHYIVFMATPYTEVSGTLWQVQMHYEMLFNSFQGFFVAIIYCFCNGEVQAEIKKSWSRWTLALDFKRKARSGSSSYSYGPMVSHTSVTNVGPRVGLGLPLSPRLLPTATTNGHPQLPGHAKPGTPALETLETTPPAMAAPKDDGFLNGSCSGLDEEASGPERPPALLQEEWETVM
Put plainly: Radioreceptor competition binding, 125I-PTH(1-34), HEK293/C21 cells. The conditions noted are these: 125I-PTH(1-34) ~0.1 nM, 2 h at room temperature. Here is the method: (§1) Human embryonic kidney (HEK293) cells, stably transfected with recombinant hPTH1-receptor (HEK293/C21 cell line, ˜400,000 receptors/cell) (Pines, M., Adams, A. E., Stueckle, S., Bessalle, R., Rashti-Behar, V., Chorev, M., Rosenblatt, M., and Suva, L. J. Endocrinology 1994, 135, 1713-1716), were maintained in D-MEM medium supplemented with 10% fetal bovine serum and […] glutamine at 37° C. in a humidified atmosphere of 95% air/5% CO2. The medium was changed every 3-4 days, and the cells were subcultured every week. Ligand stimulated adenylyl cyclase activity and radioreceptor competition binding assays were performed on confluent cultures, 1-3 days after a change of medium.
[Nle^8,18,Nal^23,Tyr^34]bPTH(1-34)-NH2 was radioiodinated and the crude material was purified as previously described (Roubini, E., Duong, L. T., Gibbons, S. W., Leu, C. T., Caulfield, M. P., Chorev, M., and Rosenblatt, M. Biochemistry 1992, 31, 4026-4033). […] The pure mono-radioiodinated peptide was isolated on an analytical RP-HPLC Vydac Protein C18 column (The Separation Group, Hesperia, Calif.) employing a linear gradient of 36-42% B in A for 30 min (A, 0.1% TFA in water; B, 0.1% TFA in acetonitrile) at a flow rate of 1 mL/min, and monitored at 220 nm. […]

The target of experiment [2] is T1, recombinant hPTH1-receptor. The experiment can be described thus: Stimulation of adenylyl cyclase activity in HEK293/C21 cells. The settings on record: 1 mM IBMX, 5 min incubation, read-out: EC50 (half maximal stimulation of adenylate cyclase). The experiment is classed as cell-based. Here is the method:
as §1
Stimulation of adenylyl cyclase activity by the PTH(1-34) analogues was assayed in stably transfected HEK293/C21 as described before (Nakamoto, C., Behar, V., Chin, K. R., Adams, A. E.; Suva, L. J.; Rosenblatt, M.; Chorev, M. Biochemistry 1995, 34, 10546-10552.). Shortly, cells were grown to confluence in 24-well culture dishes. They were then incubated with 0.5 μCi [^3H]adenine in fresh PBS supplemented medium at 37° C. for 2 h and further treated with 1 mM 3-isobutyl-1-methylxantine (IBMX) in fresh medium for 15 min at 37° C. […] Radioactivity was measured in a liquid scintillation counter (Beciman LS6000IC liquid scintillation counter, Downers Grove, Ill.).

Non-standard residues stand in square brackets, D forms with d. Residues, ends and D or L forms follow the SMILES beside them. 2Nal = N[C@@H](Cc1ccc2ccccc2c1)C(=O)O; Nle = CCCC[C@H](N)C(=O)O; βAla = NCCC(=O)O

`CCCC[C@H](NC(=O)[C@H](Cc1ccccc1)NC(=O)[C@H](CCC(N)=O)NC(=O)[C@@H](NC(=O)[C@H](CCC(=O)O)NC(=O)[C@H](CO)NC(=O)[C@@H](NC(=O)[C@H](C)N)C(C)C)[C@@H](C)CC)C(=O)N[C@@H](Cc1c[nH]cn1)C(=O)N[C@@H](CC(N)=O)C(=O)N[C@@H](CC(C)C)C(=O)NCC(=O)N[C@@H](CCCCN)C(=O)N[C@@H](Cc1c[nH]cn1)C(=O)N[C@@H](CC(C)C)C(=O)N[C@@H](CO)C(=O)N[C@@H](CO)C(=O)NCCC(=O)NCCC(=O)N[C@@H](CCCNC(=N)N)C(=O)N[C@H](C(=O)N[C@@H](CCC(=O)O)C(=O)N[C@@H](Cc1ccc2ccccc2c1)C(=O)N[C@@H](CC(C)C)C(=O)N[C@@H](CCCNC(=N)N)C(=O)N[C@@H](CCCCN)C(=O)N[C@@H](CCCCN)C(=O)N[C@@H](CC(C)C)C(=O)N[C@@H](CCC(N)=O)C(=O)N[C@@H](CC(=O)O)C(=O)N[C@H](C(=O)N[C@@H](Cc1c[nH]cn1)C(=O)N[C@@H](CC(N)=O)C(=O)N[C@@H](Cc1ccc(O)cc1)C(N)=O)C(C)C)C(C)C` [SEQ ID NO: 14, [Nle^8,β-Ala^18,19,Nal^23,Tyr^34]bPTH(1–34)NH2] (H-AVSEIQF[Nle]HNLGKHLSS[βAla][βAla]RVE[2Nal]LRKKLQDVHNY-NH2; N-terminus assumed): the IC50 in experiment [1] was more than 1000 nM. In addition, the EC50 in experiment [2] came out at 13.82 ± 0.02 nM.

Broadly, the IC50 is the concentration needed to halve the response being measured. By EC50 is commonly meant the concentration giving half of the maximal effect.
